From patent US7579371B2, “Methods of using [3.2.0] heterocyclic compounds and analogs thereof” (Nereus Pharmaceuticals, Inc., priority 2004, dated 2009) come the findings set out here.

Structures are written as SMILES. Where “and” joins values, the source holds several entries; their conditions need not be identical. Equal entries are not always repeated. Where two headings read alike, the source gives them in different places. Bounds are passed on as bounds.

One data set concerns B16-F10. Briefly: Cell growth inhibition assay (resazurin, 48 h). The format is cell-based, mouse. As to conditions: B16-F10, 48 h. As to the method:
RPMI 8226 (CCL-155), HT-29 (HTB-38), and B16-F10 (CRL-6475) cells were purchased from ATCC. RPMI 8226 cells were maintained in RPMI 1640 media supplemented with 10% (v/v) FBS, 2 mM L-glutamine, 1 mM sodium pyruvate and Penicillin/Streptomycin at 100 IU/ml and 100 μg/ml, respectively. HT-29 cells were maintained in McCoys 5A supplemented with 10% (v/v) FBS, 2 mM L-glutamine, 1 mM sodium pyruvate, 1% (v/v) non-essential amino acids, 10 mM HEPES and Penicillin/Streptomycin at 100 IU/ml and 100 μg/ml, respectively. B16-F10 cells were maintained in DMEM supplemented with 10% (v/v) FBS, 2 mM L-glutamine, 10 mM HEPES and Penicillin/Streptomycin at 100 IU/ml and 100 μg/ml, respectively.
RPMI 8226 cells were seeded at 2×10^4 cells/well in 90 μl RPMI media containing 10% (v/v) FBS or 1% (v/v) FBS into 96 well black-walled, clear-bottom tissue culture plates. […] Formulae II-16, II-17 and Formula II-18 were serially diluted in media containing 1% or 10% FBS and added in triplicate to the test wells. […] The final concentration of Formula II-18 ranged from 2 μM to 630 pM.
On the technique in general: Alamar Blue is a resazurin reagent that responds to reducing activity.

Another data set relates to MES-SA/Dx5. Briefly: Cell growth inhibition assay (resazurin, 48 h). Here is the method:
Concentrations ranging from 6.32 μM to 2 nM were tested for II-2 and II-4.
The multidrug resistant MES-SA/Dx5 tumor cell line was derived from the human uterine sarcoma MES-SA tumor cell line and expresses elevated P-Glycoprotein (P-gp), an ATP dependent efflux pump.

Data set [1] has as its system 20S proteasome chymotrypsin-like activity in RPMI 8226 cells. Briefly: Chymotrypsin-like activity of 20S proteasomes in treated RPMI 8226 cells. As to conditions: 1 nM, 1 hr. It is filed as cell-based, human. As to the method:
RPMI 8226 (ATCC, CCL-155), the human multiple myeloma cell line, was cultured in RPMI 1640 medium supplemented with 2 mM L-glutamine, 100 units/ml penicillin, 100 μg/ml streptomycin, 1 mM sodium pyruvate and 10% heat inactivated fetal bovine serum at 37° C., 5% CO2 and 95% humidified air. […] DMSO was used as the vehicle control at a final concentration of 0.1%. Following 1 hr incubation of RMPI 8226 cells with the compounds, the cells were pelleted by centrifugation at 2,000 rpm for 10 sec at room temperature and washed 3× with ice-cold 1× Dulbecco's Phosphate-Buffered Saline (DPBS, Mediatech, Herndon, Va.). DPBS washed cells were lysed on ice for 15 min in lysis buffer (20 mM HEPES, 0.5 mM EDTA, 0.05% Triton X-100, pH 7.3) supplemented with protease inhibitor cocktail (Roche Diagnostics, Indianapolis, Ind.). Cell debris was pelleted by centrifugation at 14,000 rpm for 10 min, 4° C. and supernatants (=cell lysates) were transferred to a new tube. Protein concentration was determined by the BCA protein assay kit (Pierce Biotechnology, Rockford, Ill.). […] The released coumarin (AMC) was measured fluorometrically by using λex=390 nm and λem=460 nm. The assay was performed in a microtiter plate (Corning 3904) and followed kinetically with measurements every five minutes for 2 hr. The total amount of protein used for each assay was 20 μg. […]

The next data set deals with p21 and p27. Description: Western blot of cell cycle regulatory proteins p21 and p27. It is filed as cell-based, human. As to conditions: various concentrations, preliminary. The text has this:
The ubiquitin-proteasome pathway is an essential proteolytic system involved in cell cycle control by regulating the degradation of cyclins and cyclin-dependent kinase (Cdk) inhibitors such as p21 and p27. Pagano, et al., Science 269:682 (1995), Kisselev, et al., Chem Biol 8:739 (2001), King, et al., Science 274:1652 (1996). Furthermore, p21 and p27 protein levels are increased in the presence of proteasome inhibitors. Fukuchi, et al., Biochim Biophys Acta 1451:206 (1999), Takeuchi, et al, Jpn J Cancer Res 93:774 (2002).
The Western blots presented in FIG. 33 were reprobed using antibodies against p21 and p27 to determine the endogenous level of each protein and anti-Tubulin antibody was used to confirm equal loading of protein.

The subject of a further data set is Caspase-3. Briefly: Caspase-3 activity assay in Jurkat cells. The format is cell-based, human. Particulars: EC50 concentration, 19 hours. As to the method:
Jurkat cells were plated at 2×10^6 cells/3 mL per well in a 6-well plate and incubated at 37° C., 5% (v/v) CO2 and 95% (v/v) humidity. […] Bhalla, et al., Blood 82:3133 (1993). […] Cells treated with 0.25% DMSO served as the negative control. The cells were collected by centrifugation and the media removed. Cell pellets were processed for the Caspase-3 activity assay as described in the manufacturer's protocol (EnzChek Caspase-3 Assay Kit from Molecular Probes (E-13183; see Appendix G, which form a part of this application and is also available at hypertext transfer protocol on the worldwide web at “probes.com.media/pis/mp13183.pdf.”. In brief, cell pellets were lysed on ice, mixed with the EnzChek Caspase-3 components in a 96-well plate, and then incubated in the dark for 30 minutes prior to reading fluorescence of cleaved benzyloxycarbonyl-DEVD-[…] using a Packard Fusion with λex=485 nm and λem=530 nm filters. Protein concentrations for lysates were determined using the BCA Protein Assay Kit (Pierce) and these values were used for normalization.

Data set [2] deals with RAW264.7 cells.
Data set [3] concerns RAW264.7 cells. Briefly: cells. Particulars: Mus musculus.
The next data set concerns PC-3. Description: Cell growth inhibition assay (resazurin, 48 h).

Consider `C[C@@]12OC(=O)[C@]1([C@@H](O)[C@@H]1C=CCCC1)NC(=O)[C@@H]2CCCl` [Formula II-16, Salinosporamide A], for which the EC50 in the data set on B16-F10 is 47 ± 20 nM; in the data set on B16-F10 (Mus musculus) it was 33 nM; in the data set on MES-SA/Dx5 (Homo sapiens, MES-SA/Dx5, 48 h), 23 ± 1 nM; in the data set with RAW264.7 cells [2] it was 3.6 nM; with RAW264.7 cells [3] (RAW264.7, read-out: EC50, inhibition of LeTx-mediated cytotoxicity) it was under 4 nM; in the data set on PC-3 (PC-3, 48 h) it was 64 ± 26 nM. Also, the “% cytotoxicity” value was 92 ± 2% in the data set on MES-SA/Dx5 (MES-SA/Dx5); 88% and 89% in the data set on PC-3 (PC-3). Moreover, the “% inhibition of the chymotrypsin-like activity of 20S proteasomes in RPMI 8226 cell lysates” value in data set [1] worked out at 30 ± 7%. Also, in the data set with p21 and p27, the “p21 and p27 protein levels” value was “elevated”. For the same molecule, the Caspase-3 activity entry with Caspase-3 was “activation of Caspase-3”. Besides, the “increase in the viability of LeTx-treated cells compared to LeTx treatment alone” value with RAW264.7 cells [2] turned out to be 10 fold. The viability at […] in the data set on RAW264.7 cells [3] (RAW264.7, read-out: cell-viability, compound + LeTx) came to 82%.

Broadly, the EC50 is the concentration at which the effect is half-maximal. A word on the viability: it is the share of living cells, or the viability signal relative to a control.
